Test results from patent US12539301B2, “Compound external preparation for treating alopecia areata and preparation method therefor” (CHANGSHA JINGYI PHARMACEUTICAL TECHNOLOGY CO., LTD, priority 2020, dated 2026).
Structures can show the parent of a compound that is named as a salt. Where two headings read alike, the source gives them in different places.

Tests used:
[1] = Solubility and storage stability (crystallization) of tofacitinib in gels and liniments with and without minoxidil; format: physicochemical; conditions: in water and an organic solvent, gel kept stable
Experimental: (1) Different proportions of tofacitinib were set, a mixture of water and an organic solvent was used as a mixed solvent, and a single gel and a compound gel, and a single liniment and a compound liniment were prepared for comparatively investigating dissolved states of tofacitinib in the preparations with and without addition of minoxidil. The samples were stored at the room temperature for 1 month after the preparations were prepared, and stability of tofacitinib was evaluated by whether crystallization occurred or not during the storage.
(2) For an unstable preparation which is easy to precipitate tofacitinib crystals during the storage, adjustments were made by adding an organic solvent component, a surfactant, a crystallization inhibitor, or a thickening agent, increasing an amount of minoxidil, for comparatively investigating improvement of the stability of tofacitinib in the preparations with the above methods.
Solubility: (∘: incompletely soluble; √: completely soluble); and stability: (x: crystallization and precipitation; √: non-crystallization) […]

[2] = format: physicochemical; conditions: for Dissolution condition: 100 parts per 1 part API, 30 min, heating (60° C.), after cooling
Text: Dissolution condition and dissolution required for quantifying the API in a quantitive solvent were used as preliminary evaluation indexes, and a solvent capable of dissolving both active ingredients is preferred. Icon meaning: x: insoluble (this system is a white opaque suspension with visible white solid particles); ∘: incompletely soluble (this system is partially transparent, with white visible bulk solids or suspended solids); √ completely soluble (the system is a completely transparent solution, without suspended substances and solid insoluble substances); and /: not investigated.

Amount of tofacitinib (calculated by the prototype) dissolved by minoxidil [1]: 0.05-1.0 times the amount of minoxidil
Solubility in single solvents (in words) [2]: poor solubility
Dissolution condition ([2]; Example 16-b: Propylene glycol:water = 1:9 (w/w)): ✓
Dissolution condition ([2]; Example 16-c: Propylene glycol:water = 3:7 (w/w)): ✓
Dissolution condition ([2]; Example 16-d: Propylene glycol:water = 5:5 (w/w)): ✓
Dissolution condition ([2]; Example 16-e: Propylene glycol:water = 7:3 (w/w)): ✓
Dissolution condition ([2]; Example 16-f: Propylene glycol:water = 9:1 (w/w)): ✓
Dissolution condition ([2]; Example 17: Propylene glycol:water:ethanol = 5:2:3 (w/w)): ✓
Structure (SMILES): C[C@@H]1CCN(C(=O)CC#N)C[C@@H]1N(C)c1ncnc2[nH]ccc12 [Tofacitinib citrate]
